From a melting point compilation (Tetko et al.; mined from patent text by program, amines drawn as free bases though some values may be those of a salt)

Structure (SMILES)	melting point [°C]
COc1ccc(CN(C)CCCSc2ccc(NC(=O)c3cccc4c(=O)c5cccc(OC)c5[nH]c34)cc2)cc1OC	184 to 186
CCN(c1nc2ccccc2[nH]1)C1CCN(CCc2ccccc2)CC1	205
CCCCCCCCCCCCCCCCOC(=O)c1cnccn1	53 to 54
CS(=O)(=O)Nn1c(=O)[nH]c2cc([N+](=O)[O-])c(-n3cccc3)cc2c1=O	243 to 250
CC1(C)CCC(C)(C)c2cc(-c3cc(-c4ccc(C(=O)O)cc4)ccc3OCCCO)ccc21	317
NC(=O)c1ccc(Cl)c2c1C=C([N+](=O)[O-])CO2	225 to 227
O=C1C2C3C=CC(C3)C2C(=O)N1OS(=O)(=O)CCSC1CCCCC1 (stereo not given)	96 to 98
CC1(C2C(=O)N(CC(F)(F)F)c3ccccc32)OCCO1 (stereo not given)	87 to 89
CN1CCC(=O)C(C(c2ccccc2)c2ccccc2)C1 (stereo not given)	127 to 128
Cc1[nH]n(C2CCCC2)c2nc(C3CCN(C(=O)C(F)(F)F)CC3)nc(=O)c1-2	219 to 221
CN1CCC2(CC1)c1ccccc1C(C)(O)c1c(O)cccc12 (stereo not given)	151 to 154
CCCc1cc2c(c(C)c1O)CCO2	72 to 73
Nn1cc(Br)c(=O)[nH]c1=O	214 to 215
CCc1c(O)cc(O)c(C(=O)c2ccccc2)c1CC(=O)N1CCN(c2ccccc2C#N)C(=O)C1	259 to 261
O=C(NCc1ccc(Cl)cc1)c1cn2c(CSc3ccccc3)cc3cc(CN4CCOCC4)cc(c1=O)c32	173 to 175
CCOC(=O)NC(CCc1ccccc1)P(=O)(CC(=O)O)OCc1ccccc1 (stereo not given)	151 to 153
O=[N+]([O-])c1ccc(Cl)nc1N1CCNCC1	50 to 53
CNC(=S)N1CCc2[nH]cnc2C1	228
Cc1cn([C@@H]2C[C@H](O)[C@@H](O)[C@H]2O)c(=O)[nH]c1=O (racemic)	201 to 202
CN(Cc1ccc(NC(=O)C2=Cc3cc(-c4ccc(C(F)(F)F)cc4)ccc3OCC2)cc1)C1CCOCC1	205 to 209

Structure (SMILES)	melting point [°C]
CCOC(=O)C1CC12CCN(c1ccc(N3CC(CNC(C)=O)OC3=O)cc1F)CC2 (stereo not given)	104 to 106
CC(=O)NC(CC(C)C)C(=O)N1CC1C#N (racemic)	112 to 116
CN(C)Cc1nnc(CN(C)C)n1-c1ccc(Cl)cc1C(=O)c1ccccc1	148 to 152
CCN1CCCC1CNC(=O)c1c(OC)c(Cl)cc(Cl)c1OC (stereo not given)	120 to 121
O=C(O)C1Cc2c(ncn2Cc2ccccc2)CN1C(=O)C(c1ccccc1)c1ccccc1 (stereo not given)	167 to 169
C=CCNC(=O)ON=C1CCOc2ccccc21	83 to 86
CCOCCn1c(NC2CCN(CC#N)CC2)nc2cccnc21	141
O=C(O)CCC(=O)Nc1ccc(N2CCN(C3(c4ccc(-c5ccccc5)cc4)C(=O)NC(=O)NC3=O)CC2)cc1	246 to 247
CC(C)[C@H](C/C=C/C[C@H](C(=O)N1C(=O)OC[C@@H]1Cc1ccccc1)C(C)C)C(=O)N1C(=O)OC[C@@H]1Cc1ccccc1	108 to 109
CCOC(=O)c1cn(C2COC2)c2c(F)c(F)c(F)cc2c1=O	146 to 147
CCOC(=O)NC(=S)N1CC1C#N (stereo not given)	152 to 155
O=[N+]([O-])C=Cc1ccsc1	94.5 to 96.5
c1cnc2c(N3CCC(N4CCN(c5cccc6[nH]ccc56)CC4)CC3)cccc2c1	256
COC(=O)c1cc(NC(=O)OC(C)(C)C)c(N)cc1I	60 to 78
N#CC(Cc1cccc2c1OCO2)C(=O)O (stereo not given)	118
O=C1C=C(NC(=O)C(=O)c2cn(Cc3ccc4ccccc4c3)c3ccccc23)CO1	283 to 285
CC(C)N1CC2CC(CN(C(=O)c3ccc(Cl)cc3)C2)C1	97 to 98
CS(=O)(=O)Nc1ccc(C(=O)NC(=O)N2CCC(Cc3ccccc3)CC2)cc1	97.5 to 100
O=[N+]([O-])c1ccc2c(C3=CN4CCC3CC4)c[nH]c2c1	274 to 276
CCOC(=O)CC[C@H](NC(=O)c1ccc2c(c1)CCN2Cc1cnc2nc(N)nc(N)c2n1)C(=O)OCC	168 to 170

Now from value to compound:

melting point [°C]	Structure (SMILES)
195 to 196	Cc1cc(N)ccc1Oc1ccc(Oc2ccc(N)cc2C)cc1
122 to 123	CC(C)(O)CC1NC(=O)c2ccccc21 (stereo not given)
117 to 122	CC(C)c1cccc(C(C)C)c1NC(=O)C(N)Cc1ccc(OCc2ccccc2)cc1 (stereo not given)
52 to 54	CN(C)C(=O)c1noc(-c2cnccc2C(F)(F)F)n1
256 to 259	COc1ccc2[nH]c(C)c(/C=C/C(=O)c3ccncc3)c2c1
125 to 126	COc1ccc(NC(C)=O)c(Sc2ccc([N+](=O)[O-])cc2[N+](=O)[O-])c1
74	COC(=O)c1cccnc1C(=O)c1ccccc1
157 to 159	Cc1cccc(C(C)C)c1NC(=O)NCC1(c2ccccc2)CCCC1
59 to 68	OC[C@H]1O[C@@H]1c1ccc(Cl)cc1
126 to 127	CCOC(=O)C1=C(COCc2nnn(CCN)n2)NC(C)=C(C(=O)OC)C1c1ccccc1Cl (stereo not given)
197 to 198	COC(=O)c1nc(-c2ccc(Cl)c(OC)c2F)nc2ncn(C)c12
282	CC1(C)CCC(C)(C)c2cc3cc(-c4ccc(C(=O)O)cc4)ccc3cc21
146 to 149	CC(C)N(C(=O)c1ccc(OCCCCCOc2ccc(C(N)=NO)cc2)cc1)C(C)C
168	O=Cc1cnc(-c2ccc(F)cc2)nc1
215 to 216	CCOC(=O)COc1ccc(-c2c(Cl)c(CN3C(=O)CCC3=O)nc3sc4c(c23)CCS(=O)(=O)C4)cc1
166 to 167	O=c1c2cnc(-c3ccccc3)nc2sn1Cc1ccccc1
135 to 140	COc1cc2c(c3c1OC(C)(C)C3)C(c1cccc(NC(=O)CS(C)(=O)=O)c1)=NC(C)(C)C2
260	Cc1cc(=O)[nH]c(NC(=N)Nc2ccccc2C)n1
155 to 156	CC1(C)Oc2ccccc2-n2cnc(-c3noc(C4CC4)n3)c21
174 to 176	O=C1[C@H]2CCC[C@H]2Nc2cc([N+](=O)[O-])ccc2N1Cc1ccccc1 (relative stereo)

melting point [°C]	Structure (SMILES)
216 to 219	CCC(C)(C)c1cc(-c2cccc(CC3SC(N4CCCC4)=NC3=O)c2)ccc1O (stereo not given)
120 to 121	CCN1C(=O)CC(C)(C)c2ccc(C#N)cc21
140	c1ccc(-c2ccnc3ncnn23)cc1
155 to 156	Cc1nn(-c2ccccc2)cc1C(=O)Nc1ccc(OCC(C)(C)C)c(C#N)c1
98 to 100	CCOC(=NC(=O)Nc1ccc(OC(F)(F)F)cc1)c1c(F)cccc1F
165 to 166	CCC#CCCOc1ccc(/C=C/C(=O)Nc2ccccc2C(=O)O)cc1OC
188 to 194	CC(C1=NC(C)(C)CO1)c1ccc(-c2ccc(F)cc2F)c(O)c1 (stereo not given)
157 to 158	CC(C)(C)OC(=O)N[C@H](Cc1ccc(C(F)(F)F)cc1)[C@@H](O)c1ccc(Cl)nc1 (racemic)
> 250	Brc1cccc2c1[nH]c1c2ccc2cc[nH]c21
253 to 255	CC(=O)NNC(=O)c1[nH]c2ccccc2c1Cl
228 to 230	COc1ccc(NC(=O)c2ccc(Cl)c(Cl)c2)cc1NS(=O)(=O)c1ccc(C)cc1
126 to 128	Cc1ccc(-c2nn(C(C)(C)C(=O)N(C)C)cc2C)c(Cl)c1
268	CS(=O)(=O)c1cccc(NC(=O)c2cnn3c(C(F)(F)F)cc(-c4ccc(C(F)(F)F)c(Cl)c4)nc23)c1
218 to 220	COc1ccc(-c2c(-c3ccc(S(C)(=O)=O)cc3)[nH]c3ccccc23)cc1
130 to 131	Cc1nnc(-c2ccc3occ(-c4ccc(F)cc4)c3c2)o1
129 to 130	CS(=O)(=O)c1ccc(-n2nc(C(F)(F)F)cc2-c2ccc(-c3ccco3)cc2)cc1F
98 to 100	FC(F)C(F)(F)Oc1cccc(Nc2nccc(-c3cccc(OC(F)(F)F)c3)n2)c1
248 to 255	CN1CCC(=C2c3ccccc3[C@@H](O)[C@@H](O)c3ccccc32)CC1
305	CCOC(=O)c1ccc(-c2cc3c(NCc4ccc(OC)nc4)ncnc3[nH]2)cc1
164 to 165	CN1CCC(Oc2ccc(Cl)cc2)(c2ccccc2)C(O)C1 (stereo not given)

melting point [°C]	Structure (SMILES)
214 to 216	CCCOc1cc(C)ccc1-c1nc(N)c(N=O)c(=O)[nH]1
138 to 139	CN(C=C(C#N)C(=O)Nc1ccccc1Cl)Cc1ccccc1Cl
179 to 184	COc1ccc(-c2nc(C)c(Br)[nH]2)cc1
79 to 81	CC(=O)N1N=C(c2ccncc2)OC1(C)c1ccccc1 (stereo not given)
78 to 79	COC(=O)c1cc2cc(C)ccc2s1
124 to 126	CC(=O)NCCn1ccc2c1-c1cccc(Cl)c1CC2
69 to 70	N#Cc1ccccc1-c1ccc(CN=[N+]=[N-])cc1
226 to 232	Cc1ccccc1-n1ccc2c(=O)[nH]c3c(C)cccc3c21
175	COc1ccc(CC(=O)Nc2cccc3nc(N[C@@H]4CCc5ccccc54)ccc23)cc1
190 to 192	CCOc1ncccc1OCC1(c2onc(-c3ccc(O)cc3)c2-c2ccccc2)CC1
141	COc1ccc(CCc2cccc(C(=O)Nc3ccc(Cl)cc3)c2O)cc1
190 to 193	COc1ccc(-c2cc(C(Cl)Cl)nn2-c2ccc(S(N)(=O)=O)cc2)cc1F
188 to 189	COCc1c(C(=O)OC(C)C)ncc2[nH]c3cccc(Oc4ccccn4)c3c12
96.5	N#CC(C#N)(CC=C(Cl)Cl)Cc1ccc(OC(F)(F)F)cc1
168 to 170	COc1cc2ncnc(N3CCN(C(=O)NCc4ccco4)CC3)c2cc1OC
155 to 156	CN(C)c1c(O)ccc2c1CCC1C2CCC2(C)C(=O)CCC12 (stereo not given)
87 to 89	O=C(O)Cc1ccc(Oc2ccc(F)cc2)cc1
134 to 136	Cc1c(-c2ccc(Cl)cc2)[nH]c2ccc(OCc3ccccc3)cc12
145 to 146	Cc1cc(C(C)(C)C(=O)O)ccc1O
> 200	CCOC(=O)C(C)=Cc1ccc(Sc2ccncc2)c(C(F)(F)F)c1
